From patent US9527850B2, “Benzyl piperidine compounds as lysophosphatidic acid (LPA) receptor antagonist” (Merck Patent GmbH, priority 2011, dated 2016)

target: T1, LPA2 receptor (LPA2R) (Homo sapiens, UniProt Q9HBW0); test: LPA2R-Calciumflux assay (intracellular calcium mobilisation, FLIPR); assay type: cell-based; conditions: U2OS cells recombinant expressing LPA2R; inhibition of LPA-induced Ca-flux; 10 concentrations 30 uM to 1 nM, 1% DMSO
T1 construct: expressed in transfected cells; host or cells: U2OS
T1 sequence (Q9HBW0 whole entry): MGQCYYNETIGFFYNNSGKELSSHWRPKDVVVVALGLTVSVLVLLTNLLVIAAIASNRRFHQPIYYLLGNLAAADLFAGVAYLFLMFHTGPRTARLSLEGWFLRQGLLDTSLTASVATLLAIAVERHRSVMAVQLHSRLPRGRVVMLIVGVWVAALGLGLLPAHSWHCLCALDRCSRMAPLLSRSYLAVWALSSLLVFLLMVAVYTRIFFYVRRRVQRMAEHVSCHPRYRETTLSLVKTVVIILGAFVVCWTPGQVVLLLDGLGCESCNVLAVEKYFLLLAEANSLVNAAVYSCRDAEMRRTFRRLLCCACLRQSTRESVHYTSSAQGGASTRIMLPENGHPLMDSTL
Source text: The assay detects intra cellular calcium which is generated by cells upon activation of the LPA2 receptor by its ligand LPA. This transient calcium mobilization can be monitored using a commercial calcium detection kit (e.g. from Molecular Devices). The main component of such a kit is a dye, which becomes fluorescent when calcium is present—a transient fluorescence signal after laddition of a ligand to a test well are the result. Readers like the FLIPR (Molecular Devices) can be used to monitor such transient “Ca-flux” signals.
The signals are calculated according to peak maximum minus base line.
The assay is performed in microplates (384 wells per plate).
LPA2R-Calciumflux Assay Protocol
The assay is run according to the following procedure: • 50 uL seed cells (10000 cells/well in DMEM buffer) • Incubate 24 h at 37° C., 10% CO2 • aspirate medium • 50 uL add calcium dye 1×HBSS/HEPES buffer • incubate 1 h at 37° C. (“loading”) • equilibrate 10 min at RT • 5 uL add compounds in HEPES buffer • shake 10 sec. at 1000 rpm • incubate 15 min at RT • 20 uL add LPA (in the FLIPR Tetra) in Krebs-buffer/BSA & measurement
The cells are seeded in DMEM buffer (DMEM, 10% FCS, 10 mM HEPES, 1% Pen/Strep).
Dye loading is done in HBSS/HEPES buffer (100 mL 10×HBSS+20 mL 1M HEPES+880 mL water, pH 7.4)
The LPA is added in Krebs/BSA buffer (120 mM NaCl, 5 mM KCl, 0.62 mM MgSO4, 1.8 mM CaCl2, 10 mM HEPES, 6 mM D(+)-Glucose, 0.2% BSA, pH 7.4).
The compounds are pre-diluted in HEPES buffer (20 mM, pH 7.4), whereby the final DMSO content in the assay is kept at 1%. The compounds are pre-diluted in order to generate dose response series on the microplates. The dose response series consist of 10 concentrations for each compound from 30 uM final to 1 nM final. From all compound wells the resulting signals are referred to control wells (located on each plate besides the compound wells) in terms of % activity.
From these % activity values—along with the corresponding compound concentrations—IC50 values are fitted for each compound using standard fitting programs such as Graphpad Prism. Here the method “log(inhibitor) vs. response—Variable slope” is used.

Row | SMILES | IC50 [nM]
1 | Cc1cc(C)cc(CN2CCCCC2c2cc3cc(F)ccc3[nH]2)c1 (stereo not shown) [compound 84, 2-[1-(3,5-Dimethyl-benzyl)-piperidin-2-yl]-5-fluoro-1H-indole] | < 500
2 | CCc1nc(CN2CCCCC2c2cc3cc(F)ccc3[nH]2)cs1 (stereo not shown) [compound 85] | < 500
3 | Cc1ccc(CN2CCC(C)CC2c2cc3cc(F)ccc3[nH]2)cc1C (stereo not shown) [compound 87, 2-[1-(3,4-Dimethyl-benzyl)-4-methyl-piperidin-2-yl]-5-fluoro-1H-indole] | < 500
4 | Cc1ccc(CN2CCCCC2c2nc3ccc(Cl)cc3[nH]2)cc1C(F)(F)F (stereo not shown) [compound 90] | 500 to 5000
5 | Cc1ccc(CN2CCCCC2c2nc3ccc(Br)cc3[nH]2)cc1C(F)(F)F (stereo not shown) [compound 93] | 500 to 5000
6 | CC1(C)CCC(C)(C)c2cc(CN3CCCCC3c3nc4ccc(Br)cc4[nH]3)ccc21 (stereo not shown) [compound 94, 6-Bromo-2-[1-(5,5,8,8-tetramethyl-5,6,7,8-tetrahydro-naphthalen-2-ylmethyl)-piperidin-2-yl]-1H-benzo-imidazole] | 5000 to 15000
7 | Cc1ccc(CN2CCCCC2c2nc3ccc(Br)cc3[nH]2)cc1C (stereo not shown) [compound 96, 6-Bromo-2-[1-(3,4-dimethyl-benzyl)-piperidin-2-yl]-1H-benzo-imidazole] | < 500
8 | Cc1cc(Cl)cc2nc(C3CCCCN3Cc3ccc4c(c3)C(C)(C)CCC4(C)C)[nH]c12 (stereo not shown) [compound 97, 5-Chloro-7-methyl-2-[1-(5,5,8,8-tetramethyl-5,6,7,8-tetrahydro-naphthalen-2-ylmethyl)-piperidin-2-yl]-1H-benzo-imidazole] | 500 to 5000
9 | Cc1cc(Cl)cc2nc(C3CCCCN3Cc3cccc(C(F)(F)F)c3)[nH]c12 (stereo not shown) [compound 98] | 500 to 5000
10 | Cc1cccc(CN2CCCCC2c2nc3cc(Cl)cc(C)c3[nH]2)c1 (stereo not shown) [compound 99, 5-Chloro-7-methyl-2-[1-(3-methyl-benzyl)-piperidin-2-yl]-1H-benzo-imidazole] | 500 to 5000
11 | Cc1ccc(CN2CCCCC2c2nc3cccc(C)c3[nH]2)cc1C (stereo not shown) [compound 100, 2-[1-(3,4-Dimethyl-benzyl)-piperidin-2-yl]-7-methyl-1H-benzo-imidazole] | < 500
12 | Cc1ccc(CN2CCCCC2c2nc3cc(F)ccc3n2C)cc1C (stereo not shown) [compound 103, 2-[1-(3,4-Dimethyl-benzyl)-piperidin-2-yl]-5-fluoro-1-methyl-1H-benzo-imidazole] | 500 to 5000
13 | Cc1ccc(CN2CCCCC2c2nc3cc(Cl)cc(C)c3[nH]2)cc1C (stereo not shown) [compound 105] | 500 to 5000
14 | Fc1ccc(CCN2CCCCC2c2cc3cc(F)ccc3[nH]2)cc1 (stereo not shown) [compound 111, 5-Fluoro-2-{1-[2-(4-fluoro-phenyl)-ethyl]-piperidin-2-yl}-1H-indole] | 500 to 5000
15 | Fc1ccc(CN2CCCCC2c2cc3cc(F)ccc3[nH]2)c(F)c1 (stereo not shown) [compound 112, 2-[1-(2,4-Difluoro-benzyl)-piperidin-2-yl]-5-fluoro-1H-indole] | < 500
16 | Cc1cc2nc(C3CCCCN3Cc3ccc4c(c3)C(C)(C)CCC4(C)C)[nH]c2cc1Cl (stereo not shown) [compound 113, 6-Chloro-5-methyl-2-[1-(5,5,8,8-tetramethyl-5,6,7,8-tetrahydro-naphthalen-2-ylmethyl)-piperidin-2-yl]-1H-benzo-imidazole] | 500 to 5000
17 | Cc1ccc(CN2CCCCC2c2nc3cc(C)c(Cl)cc3[nH]2)cc1C (stereo not shown) [compound 114, 6-Chloro-2-[1-(3,4-dimethyl-benzyl)-piperidin-2-yl]-5-methyl-1H-benzo-imidazole] | < 500
18 | NS(=O)(=O)c1ccc2nc(C3CCCCN3Cc3cccc(C(F)(F)F)c3)[nH]c2c1 (stereo not shown) [compound 115] | 500 to 5000
19 | Cc1ccc(CN2CCCCC2c2nc3ccc(S(N)(=O)=O)cc3[nH]2)cc1C (stereo not shown) [compound 116, 2-[1-(3,4-Dimethyl-benzyl)-piperidin-2-yl]-3H-benzo-imidazole-5-sulfonic acid amide] | < 500
20 | Cc1ccc(CN2CCCCC2c2nc3ccc(S(N)(=O)=O)cc3[nH]2)cc1C(F)(F)F (stereo not shown) [compound 117] | 500 to 5000
21 | CC1(C)CCC(C)(C)c2cc(CN3CCCCC3c3nc4ccc(S(N)(=O)=O)cc4[nH]3)ccc21 (stereo not shown) [compound 118, 2-[1-(5,5,8,8-Tetramethyl-5,6,7,8-tetrahydro-naphthalen-2-ylmethyl)-piperidin-2-yl]-3H-benzo-imidazole-5-sulfonic acid amide] | 500 to 5000

Second part, the compound after the results:

Row | IC50 [nM] | SMILES
22 | 500 to 5000 | N#Cc1cccc(CN2CCCCC2c2cc3cc(F)ccc3[nH]2)c1 (stereo not shown) [compound 86, 3-[2-(5-Fluoro-1H-indol-2-yl)-piperidin-1-ylmethyl]-benzonitrile]
23 | < 500 | Cc1ccc(CN2CCCCC2c2nc3ccc(Cl)cc3[nH]2)cc1C (stereo not shown) [compound 88, 6-Chloro-2-[1-(3,4-dimethyl-benzyl)-piperidin-2-yl]-1H-benzo-imidazole]
24 | 500 to 5000 | FC(F)(F)c1cccc(CN2CCCCC2c2nc3ccc(Cl)cc3[nH]2)c1 (stereo not shown) [compound 89]
25 | < 500 | Cc1cccc(CN2CCCCC2c2nc3ccc(Cl)cc3[nH]2)c1 (stereo not shown) [compound 91, 6-Chloro 2-[1-(3-methyl-benzyl)-piperidin-2-yl]-1H-benzo-imidazole]
26 | 500 to 5000 | FC(F)(F)c1cccc(CN2CCCCC2c2nc3ccc(Br)cc3[nH]2)c1 (stereo not shown) [compound 92]
27 | < 500 | Cc1cccc(CN2CCCCC2c2nc3ccc(Br)cc3[nH]2)c1 (stereo not shown) [compound 95, 6-Bromo-2-[1-(3-methyl-benzyl)-piperidin-2-yl]-1H-benzo-imidazole]
28 | 500 to 5000 | CC(c1ccccc1)N1CCCCC1c1nc2cc(F)ccc2[nH]1 (stereo not shown) [compound 101, 5-Fluoro-2-[1-(1-phenyl-ethyl)-piperidin-2-yl]-1H-benzo-imidazole]
29 | 500 to 5000 | Fc1ccc2[nH]c(C3CCCCN3Cc3ccccc3)nc2c1 (stereo not shown) [compound 102, 2-(1-Benzyl-piperidin-2-yl)-5-fluoro-1H-benzo-imidazole]
30 | 500 to 5000 | Fc1ccc2[nH]c(C3CCCCN3CCc3ccccc3)nc2c1 (stereo not shown) [compound 104, 5-Fluoro-2-(1-phenethyl-piperidin-2-yl)-1H-benzo-imidazole]
31 | < 500 | Cc1cccc(CN2CCCCC2c2nc3cc(C)c(Cl)cc3[nH]2)c1 (stereo not shown) [compound 106, 6-Chloro-5-methyl-2-[1-(3-methyl-benzyl)-piperidin-2-yl]-1H-benzo-imidazole]
32 | < 500 | COc1ccc(CN2CCCCC2c2cc3cc(F)ccc3[nH]2)cc1 (stereo not shown) [compound 107, 5-Fluoro-2-[1-(4-methoxy-benzyl)-piperidin-2-yl]-1H-indole]
33 | < 500 | Cc1ccc(CN2CCCCC2c2cc3cc(F)ccc3[nH]2)cc1 (stereo not shown) [compound 108, 5-Fluoro2-[1-(4-methyl-benzyl)-piperidin-2-yl]-1H-indole]
34 | < 500 | COc1cccc(CN2CCCCC2c2cc3cc(F)ccc3[nH]2)c1 (stereo not shown) [compound 109, 5-Fluoro-2-[1-(3-methoxy-benzyl)-piperidin-2-yl]-1H-indole]
35 | < 500 | Cn1nc(CN2CCCCC2c2cc3cc(F)ccc3[nH]2)c2ccccc21 (stereo not shown) [compound 110, 3-[2-(5-Fluoro-1H-indol-2-yl)-piperidin-1-ylmethyl]-1-methyl-1H-indazole]
36 | < 500 | Cc1ccc(CN2CCCC[C@@H]2c2nc3cc(F)ccc3[nH]2)cc1C [compound 119, 2-[(R)-1-(3,4-Dimethyl-benzyl)-piperidin-2-yl]-5-fluoro-1H-benzo-imidazole]
37 | < 500 | Fc1ccc(CN2CCCCC2c2nc3cc(Cl)cnc3[nH]2)cc1 (stereo not shown) [compound 120, 6-Chloro-2-[1-(4-fluoro-benzyl)-piperidin-2-yl]-3H-imidazo[4,5-b]pyridine]
38 | < 500 | CCc1nc(CN2CCCCC2c2nc3cc(F)ccc3[nH]2)cs1 (stereo not shown) [compound 121, 2-[1-(2-Ethyl-thiazol-4-ylmethyl)-piperidin-2-yl]-5-fluoro-1H-benzo-imidazole]
39 | 500 to 5000 | Fc1ccc2[nH]c(C3CCCCN3Cc3csc(Cl)n3)nc2c1 (stereo not shown) [compound 122, 2-[1-(2-Chloro-thiazol-4-ylmethyl)-piperidin-2-yl]-5-fluoro-1H-benzo-imidazole]
40 | 500 to 5000 | Cc1nc(CN2CCCCC2c2nc3cc(F)ccc3[nH]2)cs1 (stereo not shown) [compound 123]
41 | 500 to 5000 | Fc1ccc(CN2CCCC[C@H]2c2cc3ccccc3[nH]2)cc1 [compound 124, 2-[(S)-1-(4-Fluoro-benzyl)-piperidin-2-yl]-1H-indole]
42 | < 500 | Fc1ccc(CN2CCCC[C@@H]2c2cc3ccccc3[nH]2)cc1 [compound 125, 2-[(R)-1-(4-Fluoro-benzyl)-piperidin-2-yl]-1H-indole]
43 | < 500 | Cc1cc2nc(C3CCCCN3Cc3cccc(C(F)(F)F)c3)[nH]c2cc1Cl (stereo not shown) [compound 126]
